EP4144838A1, “ORGANISMS PRODUCING LESS CROTONIC ACID” (Global Bioenergies, priority 2021, dated 2023)

What was measured:
[1] = biological target: E. coli deoxyribose-phosphate aldolase (Escherichia coli, UniProt P0A6L0); conditions: Racker et al. 1951; Jennewein et al. 2006; cited from earlier work
[2] = test system: TaFdcV; experiment: Cycloadduct formation with TaFdcV followed by UV-Vis spectroscopy; type: binding, Trichoderma atroviride; conditions: for adduct formation / binding, reversibility after desalting: UV-Vis spectrum before and after a desalting step
[3] = test system: TaFdc; experiment: Adduct formation with TaFdc wild-type followed by UV-Vis spectroscopy; conditions: UV-Vis spectrum before and after a desalting step

E. coli deoxyribose-phosphate aldolase, sequence (P0A6L0 whole entry): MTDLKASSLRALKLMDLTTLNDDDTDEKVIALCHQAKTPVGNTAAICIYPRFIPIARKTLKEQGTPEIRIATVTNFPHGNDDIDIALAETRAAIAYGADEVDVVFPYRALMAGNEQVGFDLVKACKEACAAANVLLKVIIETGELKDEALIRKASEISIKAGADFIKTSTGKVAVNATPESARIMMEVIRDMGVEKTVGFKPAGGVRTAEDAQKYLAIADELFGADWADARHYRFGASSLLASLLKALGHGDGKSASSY

Molecule	inhibition of E. coli deoxyribose-phosphate aldolase [1]	adduct formation / binding, reversibility after desalting [2]	further results
OC(O)C(Cl)(Cl)Cl [chloral hydrate]	inhibit		
CC#CC(=O)O [2-butynoic acid]		a covalent inhibitory adduct is formed	
CCC/C=C/C(=O)O [hexenoic acid, trans-2-hexenoic acid]		irreversibly binds	adduct formation / binding, reversibility after desalting [3]: irreversibly binds
O=CCCl [chloroacetaldehyde]	efficiently inhibit		
NO [hydroxylamine]	inhibit		
C/C=C/C(=O)O [crotonic acid]		a covalent inhibitory adduct is formed	inhibition of the enzyme ferulic acid decarboxylase (FDC) ([2]; FDC variant evolved to decarboxylate 3-methylcrotonic acid, FIG.2): irreversible inhibitor
CCCCCCCCO [octanol]	inhibit		
pentenoic acid		irreversibly binds	adduct formation / binding, reversibility after desalting [3]: irreversibly binds
CCC=O [propionaldehyde]	inhibit		
